Drawing on paper PMC5021961, “Generation of self-clusters of galectin-1 in the farnesyl-bound form” (Scientific Reports, 2016), this text covers Kd for one molecule.

The target of the assay is T1, human galectin-1 (Gal-1) (Homo sapiens, UniProt P09382).
T1 construct: gene LGALS1
The experiment in a line: Trp68 fluorescence titration (equilibrium fit with Hill coefficient […]), fluorescence lifetime, UV resonance Raman, CD, native PAGE self-clustering. It counts as binding.

Structures are written as SMILES.

T1 sequence (P09382 2-135): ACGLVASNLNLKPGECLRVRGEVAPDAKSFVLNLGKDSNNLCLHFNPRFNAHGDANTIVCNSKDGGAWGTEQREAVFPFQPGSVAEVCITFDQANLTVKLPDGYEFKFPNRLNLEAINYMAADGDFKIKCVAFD

In turn, `CC(C)=CCC/C(C)=C/CC/C(C)=C/CSc1ccccc1C(=O)O` [FTS, farnesyl thiosalicylic acid] had a Kd of roughly 2300 nM.
